For 4 cell lines, relative viability results are on record in the supplement of paper PMC10307832.

Holding throughout (assay): relative viability (nuclei count vs DMSO), 5 days (fraction); higher = more cells survive
Compound in the assay “AZD1208 + Dasatinib”: N[C@@H]1CCCN(c2c(/C=C3\SC(=O)NC3=O)cccc2-c2ccccc2)C1 [AZD1208] + Cc1nc(Nc2ncc(C(=O)Nc3c(C)cccc3Cl)s2)cc(N2CCN(CCO)CC2)n1 [Dasatinib] (partner 0.075 µM)
In a few lines: (§1)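 Five library-drug doses in √10 steps were combined with a fixed anchor-drug dose, or a single drug was given alone, by pin tool to lung cancer cell lines in 1536-well plates the day after seeding. Nuclei were stained and counted after 5 days. Relative viability is the nuclei count in treated wells over that in vehicle wells, taken as the median of duplicate plates.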

Compound in the assay “AZD1208 + Vorinostat”: N[C@@H]1CCCN(c2c(/C=C3\SC(=O)NC3=O)cccc2-c2ccccc2)C1 [AZD1208] + O=C(CCCCCCC(=O)Nc1ccccc1)NO [Vorinostat] (partner 1 µM)
In a few lines:
as §1

Compound in the assay “AZD1208 + Decitabine”: N[C@@H]1CCCN(c2c(/C=C3\SC(=O)NC3=O)cccc2-c2ccccc2)C1 [AZD1208] + Nc1ncn([C@H]2C[C@H](O)[C@@H](CO)O2)c(=O)n1 [Decitabine] (partner 2 µM)
In a few lines: as §1

Compound in the assay “XMD14-99 + Vorinostat”: CN1CCN(CC1)C2=CC(=C(C=C2)NC3=NC(=C(S3)C(=O)C4=C(C=CC=C4Cl)Cl)N)OC [XMD14-99] + O=C(CCCCCCC(=O)Nc1ccccc1)NO [Vorinostat] (partner 1 µM)
In a few lines: as §1

For NCI-H1650, the relative viability in the assay with AZD1208 + Dasatinib (first compound 0.08 µM) amounted to 0.267; in the assay with AZD1208 + Dasatinib (first compound 0.253 µM) it was 0.311; in the assay with AZD1208 + Dasatinib (first compound 0.8 µM), 0.255; with AZD1208 + Dasatinib (first compound 2.53 µM) it was 0.261; with AZD1208 + Dasatinib (first compound 8 µM), 0.296; with AZD1208 + Vorinostat (first compound 0.08 µM), 0.635. In addition, the relative viability in the assay with AZD1208 + Vorinostat (first compound 0.253 µM) worked out at 0.464; with AZD1208 + Vorinostat (first compound 0.8 µM), 0.643; with AZD1208 + Vorinostat (first compound 2.53 µM) it was 0.588; with AZD1208 + Vorinostat (first compound 8 µM), 0.472; with AZD1208 + Decitabine (first compound 0.08 µM), 0.513; in the assay with AZD1208 + Decitabine (first compound 0.253 µM), 0.502. For the same cell line, the relative viability was found to be 0.403 with AZD1208 + Decitabine (first compound 0.8 µM); 0.376 with AZD1208 + Decitabine (first compound 2.53 µM); 0.449 with AZD1208 + Decitabine (first compound 8 µM); 0.554 in the assay with XMD14-99 + Vorinostat (first compound 0.08 µM); 0.558 with XMD14-99 + Vorinostat (first compound 0.8 µM); 0.678 in the assay with XMD14-99 + Vorinostat (first compound 2.53 µM). Besides, in the assay with XMD14-99 + Vorinostat (first compound 8 µM), the relative viability was 0.427.

Turning to NCI-H2087, the relative viability with AZD1208 + Dasatinib (first compound 0.08 µM) is 0.763; in the assay with AZD1208 + Dasatinib (first compound 0.253 µM), 0.824; with AZD1208 + Dasatinib (first compound 0.8 µM), 0.641; with AZD1208 + Dasatinib (first compound 2.53 µM) it was 0.573; in the assay with AZD1208 + Dasatinib (first compound 8 µM) it was 0.715; with AZD1208 + Vorinostat (first compound 0.08 µM), 0.789. The relative viability with AZD1208 + Vorinostat (first compound 0.253 µM) worked out at 0.795; in the assay with AZD1208 + Vorinostat (first compound 0.8 µM) it was 0.752; with AZD1208 + Vorinostat (first compound 2.53 µM) it was 0.73; with AZD1208 + Vorinostat (first compound 8 µM) it was 0.406; with AZD1208 + Decitabine (first compound 0.08 µM), 0.229; in the assay with AZD1208 + Decitabine (first compound 0.253 µM) it was 0.307. Also, the relative viability amounted to 0.258 in the assay with AZD1208 + Decitabine (first compound 0.8 µM); 0.236 in the assay with AZD1208 + Decitabine (first compound 2.53 µM); 0.25 with AZD1208 + Decitabine (first compound 8 µM); 0.617 in the assay with XMD14-99 + Vorinostat (first compound 0.08 µM); 0.668 with XMD14-99 + Vorinostat (first compound 0.8 µM); 0.864 with XMD14-99 + Vorinostat (first compound 2.53 µM). Also, the relative viability with XMD14-99 + Vorinostat (first compound 8 µM) stood at 0.449.

Turning to NCI-H1793, the relative viability came out at 0.333 in the assay with AZD1208 + Dasatinib (first compound 0.08 µM); 0.347 with AZD1208 + Dasatinib (first compound 0.253 µM); 0.358 in the assay with AZD1208 + Dasatinib (first compound 0.8 µM); 0.427 in the assay with AZD1208 + Dasatinib (first compound 2.53 µM); 0.298 in the assay with AZD1208 + Dasatinib (first compound 8 µM); 0.841 with AZD1208 + Vorinostat (first compound 0.08 µM). For the same cell line, the relative viability in the assay with AZD1208 + Vorinostat (first compound 0.253 µM) was 0.949; in the assay with AZD1208 + Vorinostat (first compound 0.8 µM), 0.752; in the assay with AZD1208 + Vorinostat (first compound 2.53 µM), 0.954; with AZD1208 + Vorinostat (first compound 8 µM), 0.713; with AZD1208 + Decitabine (first compound 0.08 µM), 0.447; with AZD1208 + Decitabine (first compound 0.253 µM) it was 0.448. Besides, the relative viability was found to be 0.509 with AZD1208 + Decitabine (first compound 0.8 µM); 0.463 with AZD1208 + Decitabine (first compound 2.53 µM); 0.363 in the assay with AZD1208 + Decitabine (first compound 8 µM); 0.767 with XMD14-99 + Vorinostat (first compound 0.08 µM); 0.916 with XMD14-99 + Vorinostat (first compound 0.8 µM); 0.627 with XMD14-99 + Vorinostat (first compound 2.53 µM). The relative viability with XMD14-99 + Vorinostat (first compound 8 µM) was determined as 0.52.

Regarding LC-2-ad, the relative viability was determined as 0.525 with AZD1208 + Dasatinib (first compound 0.08 µM); 0.464 in the assay with AZD1208 + Dasatinib (first compound 0.253 µM); 0.465 in the assay with AZD1208 + Dasatinib (first compound 0.8 µM); 0.51 in the assay with AZD1208 + Dasatinib (first compound 2.53 µM); 0.459 with AZD1208 + Dasatinib (first compound 8 µM); 0.716 with AZD1208 + Vorinostat (first compound 0.08 µM). Further, the relative viability was found to be 0.703 with AZD1208 + Vorinostat (first compound 0.253 µM); 0.685 with AZD1208 + Vorinostat (first compound 0.8 µM); 0.704 in the assay with AZD1208 + Vorinostat (first compound 2.53 µM); 0.669 in the assay with AZD1208 + Vorinostat (first compound 8 µM); 0.79 with AZD1208 + Decitabine (first compound 0.08 µM); 0.8 in the assay with AZD1208 + Decitabine (first compound 0.253 µM). The relative viability in the assay with AZD1208 + Decitabine (first compound 0.8 µM) worked out at 0.781; with AZD1208 + Decitabine (first compound 2.53 µM), 0.879; with AZD1208 + Decitabine (first compound 8 µM), 0.79; with XMD14-99 + Vorinostat (first compound 0.08 µM), 0.672; with XMD14-99 + Vorinostat (first compound 0.8 µM), 0.704; in the assay with XMD14-99 + Vorinostat (first compound 2.53 µM), 0.646. Moreover, the relative viability with XMD14-99 + Vorinostat (first compound 8 µM) amounted to 0.553.
